Data published in the NIST ThermoML archive (doi:10.1021/je500804j).

Assay: mn = molality of the nth substance listed, in mol/kg
Details: 101 kPa, Liquid, Alternating current cell with electrodes

CCCCCCCC[N+](C)(C)CCCCCCCCCCCC[N+](C)(C)CCCCCCCC.[Br-].[Br-] + O
Details | electrical conductivity [S/m]
288.15 K, m1 = 0.00524 | 0.0948
288.15 K, m1 = 0.00825 | 0.1292
288.15 K, m1 = 0.01026 | 0.1522
288.15 K, m1 = 0.01325 | 0.1863
288.15 K, m1 = 0.01696 | 0.2286
288.15 K, m1 = 0.01986 | 0.2617
288.15 K, m1 = 0.02257 | 0.2928
288.15 K, m1 = 0.02469 | 0.3169
288.15 K, m1 = 0.0276 | 0.3349
288.15 K, m1 = 0.03026 | 0.3455
288.15 K, m1 = 0.03258 | 0.3547
288.15 K, m1 = 0.03485 | 0.3637
288.15 K, m1 = 0.03697 | 0.3722
288.15 K, m1 = 0.03965 | 0.3828
288.15 K, m1 = 0.0414 | 0.3897
288.15 K, m1 = 0.04287 | 0.3956
288.15 K, m1 = 0.04499 | 0.404
288.15 K, m1 = 0.04668 | 0.4107
288.15 K, m1 = 0.04802 | 0.416
288.15 K, m1 = 0.04996 | 0.4237
288.15 K, m1 = 0.05094 | 0.4276
288.15 K, m1 = 0.05281 | 0.435
288.15 K, m1 = 0.0543 | 0.441
288.15 K, m1 = 0.0552 | 0.4446
288.15 K, m1 = 0.05651 | 0.4497
288.15 K, m1 = 0.05808 | 0.456
288.15 K, m1 = 0.05949 | 0.4616
288.15 K, m1 = 0.06045 | 0.4654
288.15 K, m1 = 0.06136 | 0.469
288.15 K, m1 = 0.06193 | 0.4713
293.15 K, m1 = 0.00394 | 0.05156
293.15 K, m1 = 0.00765 | 0.1034
293.15 K, m1 = 0.01114 | 0.1525
293.15 K, m1 = 0.01444 | 0.1943
293.15 K, m1 = 0.01756 | 0.229
293.15 K, m1 = 0.02051 | 0.2582
293.15 K, m1 = 0.02331 | 0.2806
293.15 K, m1 = 0.02597 | 0.3012
293.15 K, m1 = 0.0285 | 0.316
293.15 K, m1 = 0.03091 | 0.3286
293.15 K, m1 = 0.0332 | 0.3423
293.15 K, m1 = 0.03539 | 0.3542
293.15 K, m1 = 0.03749 | 0.3651
293.15 K, m1 = 0.03949 | 0.3739
293.15 K, m1 = 0.0414 | 0.3836
293.15 K, m1 = 0.04323 | 0.3916
293.15 K, m1 = 0.04499 | 0.4007
293.15 K, m1 = 0.04668 | 0.4081
293.15 K, m1 = 0.0483 | 0.4165
293.15 K, m1 = 0.04986 | 0.4238
293.15 K, m1 = 0.05136 | 0.4302
293.15 K, m1 = 0.05281 | 0.436
293.15 K, m1 = 0.0542 | 0.4419
293.15 K, m1 = 0.05554 | 0.4484
293.15 K, m1 = 0.05683 | 0.4533
293.15 K, m1 = 0.05808 | 0.4587
293.15 K, m1 = 0.05929 | 0.4642
293.15 K, m1 = 0.06045 | 0.4689
293.15 K, m1 = 0.06158 | 0.4733
293.15 K, m1 = 0.06267 | 0.4778
298.15 K, m1 = 0.00394 | 0.04358
298.15 K, m1 = 0.00765 | 0.1152
298.15 K, m1 = 0.01115 | 0.1707
298.15 K, m1 = 0.01445 | 0.2175
298.15 K, m1 = 0.01541 | 0.2303
298.15 K, m1 = 0.01634 | 0.2425
298.15 K, m1 = 0.01727 | 0.2535
298.15 K, m1 = 0.01818 | 0.2637
298.15 K, m1 = 0.01907 | 0.2737
298.15 K, m1 = 0.01995 | 0.2808
298.15 K, m1 = 0.02081 | 0.2903
298.15 K, m1 = 0.02167 | 0.2984
298.15 K, m1 = 0.0225 | 0.306
298.15 K, m1 = 0.02333 | 0.3152
298.15 K, m1 = 0.02414 | 0.3211
298.15 K, m1 = 0.02494 | 0.3283
298.15 K, m1 = 0.02573 | 0.3337
298.15 K, m1 = 0.02651 | 0.3387
298.15 K, m1 = 0.02727 | 0.3443
298.15 K, m1 = 0.02802 | 0.349
298.15 K, m1 = 0.02877 | 0.3546
298.15 K, m1 = 0.0295 | 0.36
298.15 K, m1 = 0.03022 | 0.3649
298.15 K, m1 = 0.0314 | 0.3728
298.15 K, m1 = 0.03255 | 0.382
298.15 K, m1 = 0.03367 | 0.3883
298.15 K, m1 = 0.03477 | 0.3965
298.15 K, m1 = 0.03689 | 0.4084
298.15 K, m1 = 0.03892 | 0.4221
298.15 K, m1 = 0.04086 | 0.4336
298.15 K, m1 = 0.04272 | 0.4435
298.15 K, m1 = 0.0445 | 0.4525
298.15 K, m1 = 0.04621 | 0.4635
298.15 K, m1 = 0.04785 | 0.4712
298.15 K, m1 = 0.04943 | 0.4799
298.15 K, m1 = 0.05094 | 0.489
298.15 K, m1 = 0.0524 | 0.4951
298.15 K, m1 = 0.05381 | 0.5029
298.15 K, m1 = 0.05517 | 0.5103
298.15 K, m1 = 0.05648 | 0.5162
298.15 K, m1 = 0.05774 | 0.5226
303.15 K, m1 = 0.00388 | 0.06075
303.15 K, m1 = 0.00752 | 0.1306
303.15 K, m1 = 0.01257 | 0.2181
303.15 K, m1 = 0.01415 | 0.2351
303.15 K, m1 = 0.01508 | 0.2505
303.15 K, m1 = 0.01599 | 0.2653
303.15 K, m1 = 0.01688 | 0.2779
303.15 K, m1 = 0.01776 | 0.2879
303.15 K, m1 = 0.01863 | 0.2986
303.15 K, m1 = 0.01948 | 0.3128
303.15 K, m1 = 0.02031 | 0.321
303.15 K, m1 = 0.02194 | 0.3372
303.15 K, m1 = 0.02274 | 0.3504
303.15 K, m1 = 0.02352 | 0.3547
303.15 K, m1 = 0.02429 | 0.3646
303.15 K, m1 = 0.02505 | 0.3691
303.15 K, m1 = 0.02652 | 0.3816
303.15 K, m1 = 0.02725 | 0.3867
303.15 K, m1 = 0.02796 | 0.3925
303.15 K, m1 = 0.02866 | 0.398
303.15 K, m1 = 0.02935 | 0.4046
303.15 K, m1 = 0.03003 | 0.4126
303.15 K, m1 = 0.03114 | 0.4192
303.15 K, m1 = 0.03222 | 0.4277
303.15 K, m1 = 0.03327 | 0.4359
303.15 K, m1 = 0.0343 | 0.4466
303.15 K, m1 = 0.03531 | 0.4517
303.15 K, m1 = 0.03629 | 0.4591
303.15 K, m1 = 0.03725 | 0.4681
303.15 K, m1 = 0.03819 | 0.4739
303.15 K, m1 = 0.03911 | 0.4794
303.15 K, m1 = 0.04 | 0.4859
303.15 K, m1 = 0.04174 | 0.4978
303.15 K, m1 = 0.0434 | 0.5113
303.15 K, m1 = 0.04498 | 0.5211
303.15 K, m1 = 0.04651 | 0.5314
303.15 K, m1 = 0.04797 | 0.5413
303.15 K, m1 = 0.04938 | 0.5513
303.15 K, m1 = 0.05073 | 0.56
303.15 K, m1 = 0.05203 | 0.5681
303.15 K, m1 = 0.05328 | 0.5759
303.15 K, m1 = 0.05448 | 0.5835
308.15 K, m1 = 0.00358 | 0.06093
308.15 K, m1 = 0.00694 | 0.1384
308.15 K, m1 = 0.01011 | 0.2008
308.15 K, m1 = 0.01163 | 0.23
308.15 K, m1 = 0.01311 | 0.2551
308.15 K, m1 = 0.01539 | 0.2922
308.15 K, m1 = 0.01622 | 0.3053
308.15 K, m1 = 0.01704 | 0.3166
308.15 K, m1 = 0.01784 | 0.3262
308.15 K, m1 = 0.01863 | 0.3371
